# Assays:
# Format in all cases: cell-based
# RPE cells = assay: α-SMA expression (immunostaining) upon TGF-β1 stimulation; conditions: 5Z-7-oxozeaenol 1 μM pretreatment 1 hour, TGF-β1 2.5 ng/ml, serum-free
# Experimental: FIGS. 2A-2C TAK1 regulates RPE cells EMT phenotype upon TGF-β stimulation. FIG. 2A: RPE cells were serum-starved for 16 hours, pretreated with 5Z-7-oxozeaenol (1 μM) or left untreated for 1 hour. The cells were then treated with TGF-β1 (2.5 ng/ml) as described herein for 24 h and immunostained with α-SMA antibodies (red) and DAPI (blue). Representative photographs of three independent experiments. The histogram in the bottom panel represents quantification of α-SMA antibody pixel intensity. FIG. 2B: RPE cells were serum-starved for 16 hours, then treated with mitomycin C (10 ng/ml) for 3 h. Thereafter, pretreated with 5Z-7-oxozeaenol (1 μM) or Dimethyl sulfoxide (DMSO) for 1 hour. Following this process a scratch was performed in the cell monolayer and the serum free medium was supplemented with TGF-β1 (2.5 ng/ml) or left unsupplemented. Scratches were photo-documented at the indicated times (top panel) and their width was measured using Image-J software. […] Bars are Mean±SD. FIG. 2C: RPE cells were serum-starved for 16 hours then pretreated with 5Z-7-oxozeaenol (1 μM) or SB431542 (10 μM), or DMSO for 1 hour. […] Total MMP-9 activities were processed by gelatin zymography (top panel) and the band intensity values were calculated by Quantity One® 1-D analysis software. […] Data is expressed as the Mean±SD. […]
# p38 [1] = assay: p38 phosphorylation by immuno-blot in W2b liver hepatocytes; conditions: 1 μM for 1 hour, TGF-β 2.5 ng/ml
# Experimental: FIG. 10: Inhibition of TAK1 abolishes the activation of TGF-β cascades in liver cells. TGF-β1 up-regulates-Smad 2/3 and p38 activation and E-cadherin expression via TAK1 activity in hepatic cells. W2B liver hepatocytes cells were treated with or without 5Z-7-oxozeaenol followed by TGF-β treatment and Smad2/3 and p38 phosphorylation patterns were examined by immuno-blots. W2b liver hepatocytes cells were treated with or without 5Z-7-oxozeaenol (1 μM) for 1 hour followed by TGF-β treatment (2.5 ng/ml) for the indicated times. Smad2/3 and p38 phosphorylation patterns were examined by immuno-blots as described above.
# p38 [2] = assay: p38 phosphorylation by immuno-blot in RPE cells; conditions: 1 μM for 1 hour then TGF-β 2.5 ng/ml
# Experimental: FIG. 4A-4C: Inhibition of TAK1 abolishes the activation of TGF-β cascades. FIG. 4A: Serum-starved RPE cells were pretreated with or without with 5Z-7-oxozeaenol (1 μM) for 1 hour and then with TGF-β (2.5 ng/ml) for the indicated times. Total protein extracts were analyzed by western blot using the indicated antibodies. […] FIG. 4B: Levels of phospho-Smad2/3 were quantified and normalized to total Smad2/3 FIG. 4C: Statistical analysis of p-p38 and p-Smad3 activation normalized to p38 and Smad3 respectively, with or without TGF-β stimulation. The histograms present results of 5 independent experiments. Statistics were computed using student t-test (Two tailed distribution equal variance). Data is expressed as the Mean±SD. RPE cells were treated with or without 5Z-7-oxozeaenol followed by TGF-β1 treatment and Smad2/3 phosphorylation patterns were examined by immuno-blots. […] Upon TGF-β1 stimulation, the phosphorylation of p38 increased, reaching a peak at 60 min (FIGS. 4A and C).
compound,measurement,setting,value
COc1cc(O)c2c(c1)/C=C/C[C@H](O)[C@H](O)C(=O)/C=C\C[C@H](C)OC2=O [5Z-7-oxozeaenol],TGF-β1-stimulated α-SMA expression,RPE cells,significantly attenuated
same,p38 activation,p38 [1],barely detectable
same,p38 activation (phosphorylation) upon TGF-β1 stimulation,p38 [2],abolished p38 activation

# Reference: patent US10206900B2, “Treatments for fibrotic diseases” (MOR RESEARCH APPLICATIONS LTD., priority 2013, dated 2019)
